Here are results for 71 molecules from ChEMBL document CHEMBL3507680, “University of Dundee, Gates Library screen for HepG2 cell viability”.

This series is described as follows: Human HepG2 cell viability assay in 384 well format. Type of series: toxicity, cell-based. Further details: dose 125 nL, time 70.5 hour; concentration not given beside the values. The following applies: HepG2 cells, read-out: Inhibition.
For the molecule `O=C(COC[C@]12COC[C@H]1CN(C1CCC1)C2)N1CCCC1`, the cytotoxicity at 70.5 h stood at 3.04%.

Regarding `N#Cc1ccc(Cn2cncn2)c(F)c1`, the cytotoxicity at 70.5 h was -12.7%.

`Cc1noc(C)c1CN(C)CC(c1cccs1)N1CCOCC1` (stereo unspecified): the cytotoxicity at 70.5 h was -4.33%.

Turning to `CC(NC(=O)NCCn1ccnc1)c1ccc2c(c1)OCCCO2` (stereo unspecified), the cytotoxicity at 70.5 h is -13.2%.

As to `Cn1ccnc1-c1nc2cc(S(=O)(=O)N3CCCC3)ccc2n1C`, the cytotoxicity at 70.5 h was -26.2%.

As to `Nc1cccnc1N1CCN(c2ccccc2)CC1`, the cytotoxicity at 70.5 h was -0.724%.

As to `CCc1nc(C)c([C@H]2CN(C)C[C@@H]2C(=O)Nc2ccc3[nH]ncc3c2)[nH]1`, the cytotoxicity at 70.5 h is -5.87%.

For `CCN(C)S(=O)(=O)NCC(O)c1c(Cl)cccc1Cl` (stereo unspecified), the cytotoxicity at 70.5 h was determined as 18.4%.

For `CCCOc1ccccc1C(N)CC(C)C` (stereo unspecified), the cytotoxicity at 70.5 h was -9.52%.

`Cc1nc(COC[C@H]2CC[C@H]3NCC[C@H]3O2)cs1`: the cytotoxicity at 70.5 h was -6.2%.

As to `CC(=O)NC(C(=O)N1CCn2cncc2C1)C(C)C` (stereo unspecified), the cytotoxicity at 70.5 h was -2.16%.

For `CN(Cc1csc(-c2cnn(C)c2)n1)CC1CCN(CCO)CC1`, the cytotoxicity at 70.5 h came to 18.5%.

With `CSCC(C)(O)CNc1ccccn1` (stereo unspecified), the cytotoxicity at 70.5 h is -1.72%.

As for `CCCn1cc(NC(=O)c2cccc(CN3CC=CC3)c2)nn1`, the cytotoxicity at 70.5 h stood at 45.4%.

In the case of `Cc1noc(NC(=O)c2ccc(Br)cc2)n1`, the cytotoxicity at 70.5 h amounted to 48.3%.

On to `COCCN(C)c1nc(-c2ccncc2)nc2c1CCN(C(C)=O)C2`, for which the cytotoxicity at 70.5 h was -7.41%.

Turning to `CC(C)(C)NC(=O)N1CCN2C(=O)OCC2C1` (stereo unspecified), the cytotoxicity at 70.5 h was -3.52%.

For `Cc1nn(CCO)c(C)c1CNC1CCc2c(F)cccc21` (stereo unspecified), the cytotoxicity at 70.5 h worked out at 0.27%.

`COC(=O)c1ccc(C(=O)NCC(O)c2cccn2C)cc1` (stereo unspecified): the cytotoxicity at 70.5 h amounted to 48.7%.

With `CN(C)CCn1c(=O)oc2ccc(NC(=O)CSc3ccccc3)cc21`, the cytotoxicity at 70.5 h worked out at 6.5%.

Regarding `CCC(CN1CCCC1)n1cncc1-c1cnn(Cc2ccccc2)c1` (stereo unspecified), the cytotoxicity at 70.5 h was -4.48%.

With `Cc1nnsc1C(=O)NCc1cccnc1N1CCCC(O)C1` (stereo unspecified), the cytotoxicity at 70.5 h was -15.1%.

Turning to `CN(C)CCN1CCc2ncc(CN(C)Cc3ccco3)n2CC1`, the cytotoxicity at 70.5 h was found to be 30%.

For the molecule `CC(C)Cc1ccc(C(=O)Cn2cnnc2[S+](C)[O-])cc1` (stereo unspecified), the cytotoxicity at 70.5 h was -3.94%.

For the molecule `COCCC(=O)N1CCN(CC2CC2)c2ccccc21`, the cytotoxicity at 70.5 h was -3.57%.

In the case of `Cn1c(C2CC2)nc2c1CCN(CCS(=O)(=O)c1ccccc1)C2`, the cytotoxicity at 70.5 h was -14.4%.

Turning to `CN1C(=O)CC(c2cnn(C)c2)C12CCN(C(=O)C1CC=CC1)CC2` (stereo unspecified), the cytotoxicity at 70.5 h was -6.39%.

`CC(=O)N1CCOC2(CCCN(Cc3ccc(Cl)c(C(F)(F)F)c3)C2)C1` (stereo unspecified): the cytotoxicity at 70.5 h is -1.77%.

On to `Cc1cccc(OCCC(=O)N(C)CC(C)C#N)c1C` (stereo unspecified), for which the cytotoxicity at 70.5 h turned out to be 19.7%.

Regarding `COc1c(C)cc(CNCc2ccnc(N3CCOCC3)c2)cc1C`, the cytotoxicity at 70.5 h came to 2.82%.

Take `Cc1noc(C)c1CCC(=O)N1CCOCC1CCc1cnccn1` (stereo unspecified): the cytotoxicity at 70.5 h stood at 14%.

As for `Cc1ccc(-c2nc(CNc3ccc(C(N)=O)c(C)c3)cs2)o1`, the cytotoxicity at 70.5 h is -8.76%.

`N#Cc1cccnc1N1CCC(c2nc(C(F)(F)F)c[nH]2)CC1`: the cytotoxicity at 70.5 h was -15.7%.

For the molecule `NC(=O)CN1CCCC1c1csc(Nc2cnccn2)n1` (stereo unspecified), the cytotoxicity at 70.5 h is -9.23%.

Take `CN(Cc1cc(F)ccc1C#N)CC(C)(CO)CO`: the cytotoxicity at 70.5 h was -4.66%.

As for `CCN1CCCC(C)(C(=O)NCCc2nnc(C)[nH]2)C1` (stereo unspecified), the cytotoxicity at 70.5 h was -3.07%.

On to `O=C1C(n2nnc(-c3ccsc3)n2)CCN1CC(F)(F)F` (stereo unspecified), for which the cytotoxicity at 70.5 h was -11.5%.

`CCOc1ccc(S(=O)(=O)C(C)C(=O)Nc2cc(C)no2)cc1` (stereo unspecified): the cytotoxicity at 70.5 h is -4.64%.

For the molecule `Cc1nc(COC[C@H]2CCC[C@]23CN(C2CCOC2)CCO3)cs1` (stereo partly specified), the cytotoxicity at 70.5 h turned out to be 22.4%.

For `Cn1c(NCC(=O)N2CCCCC2)c(C#N)c(=O)n(C)c1=O`, the cytotoxicity at 70.5 h is -11.6%.

As for `COc1cc(Oc2ccc(C(N)=O)cn2)ccc1CN1CCCC1`, the cytotoxicity at 70.5 h was -6.89%.

With `CN(C)CCN1CCO[C@H]2CN(Cc3ccccn3)C[C@H]21`, the cytotoxicity at 70.5 h is -6%.

In the case of `CCCn1nccc1-c1nccnc1CC1CCN(C(C)=O)C1` (stereo unspecified), the cytotoxicity at 70.5 h is -2.05%.

As to `O=C(O)c1cc(S(=O)(=O)Nc2cccc3c2OCCO3)c(Cl)cc1F`, the cytotoxicity at 70.5 h was -124%.

For `COc1ccc(C(=O)N2CCCCC2c2nccs2)c(OC)c1` (stereo unspecified), the cytotoxicity at 70.5 h was -6.39%.

Consider `CN(C)C1(CNc2nccc(C3CCCC3)n2)CCOCC1`, for which the cytotoxicity at 70.5 h is -4.46%.

As for `CC(C)NC(=O)[C@H]1C[C@@H]2CN(C(=O)NC(C)C)C[C@H]1O2`, the cytotoxicity at 70.5 h was -10.3%.

For `O[C@@]1(CN2CCN(Cc3ccncc3)CC2)CCCN2CCCC[C@@H]21`, the cytotoxicity at 70.5 h is -9.72%.

As for `CC(C)S(=O)(=O)NCC(Cc1cccc(F)c1)N1CCNC1=O` (stereo unspecified), the cytotoxicity at 70.5 h is -15.5%.

As for `Cc1cc(C)n(CC2CCCN2C(=O)CCCc2ccccn2)n1` (stereo unspecified), the cytotoxicity at 70.5 h was -5.04%.

For the molecule `Cc1ccc(N2CC[C@H]3O[C@H](C(=O)NCc4ccco4)CC[C@H]32)nn1`, the cytotoxicity at 70.5 h was -18.3%.

For `CCNC(=O)Nc1c(C)cnn1Cc1cc(F)ccc1F`, the cytotoxicity at 70.5 h was -11.6%.

`CCCC(NC(=O)c1cnccn1)c1nnc2ccccn12` (stereo unspecified): the cytotoxicity at 70.5 h was -11%.

For `CN1CCC(c2nccnc2Nc2cnccn2)CC1`, the cytotoxicity at 70.5 h is -0.843%.

`COc1ccc(-c2nc(CNC(C)Cn3cccn3)cs2)cc1` (stereo unspecified): the cytotoxicity at 70.5 h is -12.5%.

Consider `CCc1nn(C)c(Cl)c1CN1C[C@@H](NC(=O)N(C)C)[C@H](C(C)C)C1`, for which the cytotoxicity at 70.5 h is -5.68%.

On to `Cc1c(F)cccc1S(=O)(=O)NC(C)(C)CN`, for which the cytotoxicity at 70.5 h is -3.29%.

Turning to `Cc1ccc(C(=O)O)cc1-c1cccc2c1CCNC2`, the cytotoxicity at 70.5 h is -21%.

For `CCN1C(=O)C2(CCOCC2)c2cc(NC(=O)c3cc(C)n[nH]3)ccc21`, the cytotoxicity at 70.5 h is -3.02%.

In the case of `CCN(CC)c1ccc(NC(=O)N2CCc3sccc3C2)cn1`, the cytotoxicity at 70.5 h was -2.76%.

On to `Cc1nn(C)c2nc(N3CCNC(=O)C3C(C)C)sc12` (stereo unspecified), for which the cytotoxicity at 70.5 h stood at 10.4%.

On to `CN(C)C(=O)c1n[nH]c2c1CN(Cc1ccccn1)CC2`, for which the cytotoxicity at 70.5 h was -3.26%.

Take `Cc1ccc(CN2CCC3(CC2)CN(C(=O)c2cnccn2)CCO3)o1`: the cytotoxicity at 70.5 h is -6.5%.

As for `CCn1c(C2CCCN(C(=O)c3ccc[nH]3)C2)nn(CCN(C)C)c1=O` (stereo unspecified), the cytotoxicity at 70.5 h was 4.96%.

For the molecule `Cc1nsc(C(=O)NCCc2ccc(Cl)cc2)n1`, the cytotoxicity at 70.5 h is 2.81%.

Take `CC(CNC(=O)c1ccc(=O)[nH]n1)N1CCc2ccccc21` (stereo unspecified): the cytotoxicity at 70.5 h came out at 2.77%.

In the case of `Cc1ccc(C(=O)N2CCC3(CCC(=O)N(CC(N)=O)C3)CC2)cc1`, the cytotoxicity at 70.5 h was -8.05%.

Turning to `c1cncc(CN2CCC3(CCCN(c4nncs4)C3)C2)c1` (stereo unspecified), the cytotoxicity at 70.5 h is -7.53%.

Regarding `Cc1nc(N(C)Cc2cccc(O)c2)nc2cc(S(C)(=O)=O)ccc12`, the cytotoxicity at 70.5 h is -7.8%.

With `CCc1nnc2n1CC(CNc1cnc3ccccc3n1)CC2` (stereo unspecified), the cytotoxicity at 70.5 h was found to be 1.47%.

Regarding `CCc1cnc(N2C[C@@H]3[C@@H](C(=O)N(C)C)CCS(=O)(=O)[C@@H]3C2)nc1`, the cytotoxicity at 70.5 h is -7.5%.
